Where two headings read alike, the source gives them in different places.
Columns and labels:
[1] = molecular target: T1, binding of His-XIAP(BIR2)-avi fusion protein to GST-RIPK2 fusion protein (RIPK2/XIAP) (Homo sapiens, UniProt O43353); assay: RIPK2-XIAP binding competition PPI assay (TR-FRET); settings: RIPK2/XIAP binding competition PPI assay; for Emax: read-out: PPI Amax bin; for IC50: read-out: PPI IC50 bin
T1 construct: made in house; host or cells: baculovirus infected Sf9 cells
From the text: The ability of selected compounds of Formula (I) to inhibit the binding of an His-XIAP(BIR2)-avi fusion protein to a GST-RIPK2 fusion protein was quantified employing the TR-FRET-based competition assay as described in the following paragraphs.
Recombinant fusion protein of N-terminal Glutathione-S-Transferase (GST) and a fragment of human RIPK2 (amino acids 1-310 of accession number 043353), expressed in baculovirus infected Sf9 cells, purified via glutathione affinity chromatography, was used as GST-RIPK2 fusion protein. Recombinant fusion protein of N-terminal 6×Histidine (His), a fragment of human XIAP (amino acids 152-231 of accession number P98170), and C-terminal avi tag, expressed in baculovirus infected Sf9 cells, purified via Nickel NTA affinity chromatography, was used as the His-XIAP(BIR2)-avi fusion protein.
For the assay, a working solution of 1 nM GST-RIPK2, 25 nM His-XIAP(BIR2)-avi, 6 nM Anti-His-XL665 […] (Revvity Catalogue No. 61HISXLB), and 0.5 nM Anti-GST-Tb (Revvity Catalogue No. 61GSTTLB) in 25 mM Tris-HCl 7.5, 0.5 mM ethylene glycol-bis(2-aminoethylether)-N,N,N′,N′-tetraacetic acid (EGTA), 10 mM magnesium chloride (MgCl2), 2.5 mM dithiothreitol (DTT), 0.01% (w/v) bovine serum albumin (BSA), 0.005% (w/v) Pluronic F-127 (Sigma), 0.5 mM sodium ortho-vanadate, 5 mM β-Glycerophosphate disodium salt hydrate (BGP) was prepared. 50 nL of a 100-fold concentrated solution of each test compound in DMSO was dispensed via acoustic dispensing into a white low volume 384-well microtiter plate (Perkin Elmer Catalogue No. 6008280). Subsequently, 5 μL of the assay working solution were added.
The resulting mixture was incubated 120 min at 23° C. Subsequently, the amount of complex formed by the GST-RIPK2, XIAP(BIR2)-avi, Anti-His-XL665, and Anti-GST-Tb was evaluated by measurement of the resonance energy transfer from the Tb-cryptate to the XL665. Therefore, the fluorescence emissions at 520 nm and 665 nm after excitation at 337 nm were measured in a TR-FRET reader, e.g. a Pherastar FS (BMG Labtechnologies, Offenburg, Germany) or an Envision (PerkinElmer). The ratio of the emissions at 665 nm and at 520 nm was taken as the measure of the amount of the complex. The data were normalized (assay reaction without inhibitor=0% activity, 50 nM of GSK583=−100% activity).
For the RIPK2/XIAP binding competition PPI assay Amax values, “A” denotes an Amax of ≥80%; “B” denotes an Amax of 80%>B≥55; “C” denotes an Amax of 55%>C>30; and “D” denotes an Amax of ≤30%.

[2] = tested on: NF-κB pathway (SEAP) in THP1-Dual cells; assay: THP-1 Dual cell SEAP assay (L18-MDP stimulated); format: cell-based; settings: read-out: NF-κB THP1 IC50 bin
Method: THP1-Dual™ cells (InvivoGen Cat #thpd-nfis) allow simultaneous assessment of the NF-κB pathway, by monitoring the activity of secreted embryonic alkaline phosphatase (SEAP) as well as the IRF pathway, by assessing the activity of a secreted luciferase (Lucia). Cells were cultured according to manufacturers' recommendations. For the assay, cell concentration was adjusted to 7.14×10^5 cells/mL in assay media (RPMI 1640, 2 mM L-Glutamine, 25 mM HEPES, 10% fetal bovine serum (heat-inactivated for 30 min at 56° C.), Pen-Strep (100 U/mL)) and 35 µL of cell suspension (˜25,000 cells) per well were added to a flat bottom 384-well plate (white opaque). Plate was centrifuged at 300 g for 2 min, compounds were added in serial dilution series according to the plate layout (volumes ˜500 nL-0.0152 nL) and plate was incubated at 37° C. in 5% CO2 for 30 min. Using assay media, a L18-MDP stock solution, that results in a final concentration of 10 ng/mL L18-MDP in each well when adding 15 μL to each well, was prepared. 15 μL of L18-MDP stock solution was added to each well, while 15 μL of assay media was added to the negative control wells. Plates were subsequently incubated at 37° C. in 5% CO2 overnight (20-24 h).
For the SEAP assay: without disturbing the cells at the bottom of the well, 15 μL supernatant was transferred to a clear 384-well flat bottom plate and 35 μL QUANTI-Blue Solution per well was added. Following a 2 h incubation at 37° C., the optical density (OD) was measured at 620-655 nm using a microplate reader (PheraStar FS microplate reader with protocol for OD 620-655 nm).
Values of media-only wells were subtracted and % inhibition for each compound concentration relative to the DMSO/L18-MDP-treated controls was calculated. Inhibition values+/−SD were fitted by non-linear regression using Prism software (GraphPad PRISM Software) to calculate IC50 values.

T1 sequence (O43353 1-310 limits assumed): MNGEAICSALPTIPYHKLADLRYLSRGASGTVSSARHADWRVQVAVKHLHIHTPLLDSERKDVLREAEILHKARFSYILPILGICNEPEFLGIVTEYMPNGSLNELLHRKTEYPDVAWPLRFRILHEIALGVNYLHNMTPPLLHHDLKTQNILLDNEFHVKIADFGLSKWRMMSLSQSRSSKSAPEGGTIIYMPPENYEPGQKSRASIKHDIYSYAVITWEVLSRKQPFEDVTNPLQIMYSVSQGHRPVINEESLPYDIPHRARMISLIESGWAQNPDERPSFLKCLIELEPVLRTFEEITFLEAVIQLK

COc1cc2ncc(-c3cccc(NS(=O)(=O)c4cnn(C)c4)c3)n2cc1S(=O)(=O)C(C)(C)C [Example 294, N-(3-(6-(tert-butylsulfonyl)-7-methoxyimidazo[1,2-a]pyridin-3-yl)phenyl)-1-methyl-1H-pyrazole-4-sulfonamide]
Emax ([1]; Amax): > 80% | IC50 [1]: < 1 nM | IC50 ([2]; Homo sapiens, THP1-Dual): 50 to 250 nM

CC(F)(CO)COc1cc2ncc(-c3cc(Cl)c(N)nc3F)n2cc1S(=O)(=O)C(C)(C)C (single isomer, unassigned) [Example 265]
Emax ([1]; Amax): > 80% | IC50 [1]: 1 to 2.5 nM | IC50 ([2]; Homo sapiens, THP1-Dual): 50 to 250 nM

COc1cc2ncc(-c3cc(F)c(OC)c(NS(=O)(=O)c4c(C)nn(C)c4C)c3)n2cc1S(=O)(=O)C(C)(C)C [Example 139, N-(5-(6-(tert-butylsulfonyl)-7-methoxyimidazo[1,2-a]pyridin-3-yl)-3-fluoro-2-methoxyphenyl)-1,3,5-trimethyl-1H-pyrazole-4-sulfonamide]
Emax ([1]; Amax): 55 to 80% | IC50 [1]: > 20 nM | IC50 ([2]; Homo sapiens, THP1-Dual): > 1000 nM

COc1cc2ncc(-c3cc(F)c(OC)c(NS(=O)(=O)c4cnn(C)c4)c3)n2cc1C(F)(F)F [Example 136, N-(3-fluoro-2-methoxy-5-(7-methoxy-6-(trifluoromethyl)imidazo[1,2-a]pyridin-3-yl)phenyl)-1-methyl-1H-pyrazole-4-sulfonamide]
Emax ([1]; Amax): > 80% | IC50 [1]: 2.5 to 20 nM | IC50 ([2]; Homo sapiens, THP1-Dual): 250 to 1000 nM

CCS(=O)(=O)Nc1cc(-c2cnc3cc(OC[C@H](C)O)c(S(=O)(=O)C(C)(C)C)cn23)cc(F)c1OC [Example 270, (S)-N-(5-(6-(tert-butylsulfonyl)-7-(2-hydroxypropoxy)imidazo[1,2-a]pyridin-3-yl)-3-fluoro-2-methoxyphenyl) ethanesulfonamide]
Emax ([1]; Amax): 55 to 80% | IC50 [1]: < 1 nM | IC50 ([2]; Homo sapiens, THP1-Dual): < 50 nM

COc1cc2ncc(-c3cc(F)c(OC)c(NS(=O)(=O)c4coc(C)n4)c3)n2cc1S(=O)(=O)C(C)(C)C [Example 293, N-(5-(6-(tert-butylsulfonyl)-7-methoxyimidazo[1,2-a]pyridin-3-yl)-3-fluoro-2-methoxyphenyl)-2-methyloxazole-4-sulfonamide]
Emax ([1]; Amax): 30 to 55% | IC50 [1]: < 1 nM | IC50 ([2]; Homo sapiens, THP1-Dual): < 50 nM

COc1cc2ncc(-c3cc(F)cc(NS(=O)(=O)c4cnn(C)c4)c3)n2cc1S(=O)(=O)C(C)(C)C [Example 284, N-(3-(6-(tert-butylsulfonyl)-7-methoxyimidazo[1,2-a]pyridin-3-yl)-5-fluorophenyl)-1-methyl-1H-pyrazole-4-sulfonamide]
Emax ([1]; Amax): > 80% | IC50 [1]: < 1 nM | IC50 ([2]; Homo sapiens, THP1-Dual): 50 to 250 nM

COc1cc2ncc(-c3cc(F)c(OC)c(NS(=O)(=O)c4cnc(C)o4)c3)n2cc1S(=O)(=O)C(C)(C)C [Example 290, N-(5-(6-(tert-butylsulfonyl)-7-methoxyimidazo[1,2-a]pyridin-3-yl)-3-fluoro-2-methoxyphenyl)-2-methyloxazole-5-sulfonamide]
Emax ([1]; Amax): < 30% | IC50 [1]: > 20 nM | IC50 ([2]; Homo sapiens, THP1-Dual): > 1000 nM

COc1cc2ncc(-c3cc(F)c(OC)c(NS(=O)(=O)c4cc(C)no4)c3)n2cc1S(=O)(=O)C(C)(C)C [Example 288, N-(5-(6-(tert-butylsulfonyl)-7-methoxyimidazo[1,2-a]pyridin-3-yl)-3-fluoro-2-methoxyphenyl)-3-methylisoxazole-5-sulfonamide]
Emax ([1]; Amax): < 30% | IC50 [1]: > 20 nM | IC50 ([2]; Homo sapiens, THP1-Dual): > 1000 nM

CC(=O)COc1cc2ncc(-c3cc(Cl)c(N)nc3F)n2cc1S(=O)(=O)C(C)(C)C [Example 300, 1-((3-(6-amino-5-chloro-2-fluoropyridin-3-yl)-6-(tert-butylsulfonyl)imidazo[1,2-a]pyridin-7-yl)oxy)propan-2-one]
Emax ([1]; Amax): > 80% | IC50 [1]: 2.5 to 20 nM | IC50 ([2]; Homo sapiens, THP1-Dual): 250 to 1000 nM

COc1cc2ncc(-c3cc(F)c(OC)c(NS(=O)(=O)c4cn[nH]c4)c3)n2cc1S(=O)(=O)C(C)(C)C [Example 140, N-(5-(6-(tert-butylsulfonyl)-7-methoxyimidazo[1,2-a]pyridin-3-yl)-3-fluoro-2-methoxyphenyl)-1H-pyrazole-4-sulfonamide]
Emax ([1]; Amax): > 80% | IC50 [1]: < 1 nM | IC50 ([2]; Homo sapiens, THP1-Dual): < 50 nM

COc1c(F)cc(-c2cnc3cc(Cl)c(S(=O)(=O)C(C)(C)C)cn23)cc1NS(=O)(=O)c1cnn(C)c1 [Example 263, N-(5-(6-(tert-butylsulfonyl)-7-chloroimidazo[1,2-a]pyridin-3-yl)-3-fluoro-2-methoxyphenyl)-1-methyl-1H-pyrazole-4-sulfonamide]
Emax ([1]; Amax): > 80% | IC50 [1]: < 1 nM | IC50 ([2]; Homo sapiens, THP1-Dual): < 50 nM

COc1cc2ncc(-c3cc(F)c(OC)c(NS(=O)(=O)c4cnn(C)c4)c3)n2cc1S(=O)(=O)C(C)C [Example 262, N-(3-fluoro-5-(6-(isopropylsulfonyl)-7-methoxyimidazo[1,2-a]pyridin-3-yl)-2-methoxyphenyl)-1-methyl-1H-pyrazole-4-sulfonamide]
Emax ([1]; Amax): > 80% | IC50 [1]: < 1 nM | IC50 ([2]; Homo sapiens, THP1-Dual): < 50 nM

COc1c(F)cc(-c2cnc3cc(OC[C@H](C)O)c(S(=O)(=O)C(C)(C)C)cn23)cc1NS(=O)(=O)c1cnn(C)c1 [Example 264, (S)-N-(5-(6-(tert-butylsulfonyl)-7-(2-hydroxypropoxy)imidazo [1,2-a]pyridin-3-yl)-3-fluoro-2-methoxyphenyl)-1-methyl-1H-pyrazole-4-sulfonamide]
Emax ([1]; Amax): > 80% | IC50 [1]: < 1 nM | IC50 ([2]; Homo sapiens, THP1-Dual): < 50 nM

COc1cc2ncc(-c3cc(NS(=O)(=O)c4cnn(C)c4)c(OC)c(OC)c3)n2cc1N1CC(C)CC1=O (single isomer, unassigned) [Example 274]
Emax ([1]; Amax): > 80% | IC50 [1]: 2.5 to 20 nM | IC50 [2]: 250 to 1000 nM

COc1cc2ncc(-c3cc(C)c(OC)c(NS(=O)(=O)c4cnn(C)c4)c3)n2cc1S(=O)(=O)C(C)(C)C [Example 286, N-(5-(6-(tert-butylsulfonyl)-7-methoxyimidazo[1,2-a]pyridin-3-yl)-2-methoxy-3-methylphenyl)-1-methyl-1H-pyrazole-4-sulfonamide]
Emax ([1]; Amax): > 80% | IC50 [1]: < 1 nM | IC50 ([2]; Homo sapiens, THP1-Dual): 50 to 250 nM

CC(F)(CO)COc1cc2ncc(-c3cc(Cl)c(N)nc3F)n2cc1S(=O)(=O)C(C)(C)C (single isomer, unassigned) [Example 266]
PPI Amax bin ([1]; Amax): A (an Amax of ≥80%) | IC50 [1]: 1 to 2.5 nM | IC50 [2]: 50 to 250 nM

COc1c(F)cc(-c2cnc3cc(OC[C@H](C)O)c(S(=O)(=O)C(C)(C)C)cn23)cc1NS(C)(=O)=O [Example 269, (S)-N-(5-(6-(tert-butylsulfonyl)-7-(2-hydroxypropoxy)imidazo[1,2-a]pyridin-3-yl)-3-fluoro-2-methoxyphenyl) methanesulfonamide]
Emax ([1]; Amax): 55 to 80% | IC50 [1]: < 1 nM | IC50 ([2]; Homo sapiens, THP1-Dual): < 50 nM

From patent US20260137706A1, “METHODS OF TREATING INFLAMMATORY DISEASES” (INTERLINE THERAPEUTICS, INC., priority 2023, published 2026)
